Usually IC50 stands for the point on the concentration scale where inhibition reaches its midpoint. Read a high IC50 as a need for much substance. The Ki is a dissociation constant, usually derived from enzyme kinetics or from competition with a known ligand. Low readings indicate higher affinity, high ones lower affinity. A word on the EC50: it is the concentration at which the effect is half-maximal. Low values mean greater potency, high ones weaker potency. One may read the Emax as the size of the effect at its maximum, as opposed to the concentration needed.

Experiment [1] deals with T1, CYP2C9 (Homo sapiens, UniProt P11712).
T1 construct: using commercially available pooled human hepatic microsome; from tissue; host or cells: pooled human hepatic microsomes
Briefly: Cytochrome P450 inhibition, pooled human hepatic microsome, CYP2C9. Type of experiment: in vitro ADME.

Experiment [2] concerns the target T2, CYP1A2 (Homo sapiens, UniProt P05177).
T2 sequence (P05177 1-516): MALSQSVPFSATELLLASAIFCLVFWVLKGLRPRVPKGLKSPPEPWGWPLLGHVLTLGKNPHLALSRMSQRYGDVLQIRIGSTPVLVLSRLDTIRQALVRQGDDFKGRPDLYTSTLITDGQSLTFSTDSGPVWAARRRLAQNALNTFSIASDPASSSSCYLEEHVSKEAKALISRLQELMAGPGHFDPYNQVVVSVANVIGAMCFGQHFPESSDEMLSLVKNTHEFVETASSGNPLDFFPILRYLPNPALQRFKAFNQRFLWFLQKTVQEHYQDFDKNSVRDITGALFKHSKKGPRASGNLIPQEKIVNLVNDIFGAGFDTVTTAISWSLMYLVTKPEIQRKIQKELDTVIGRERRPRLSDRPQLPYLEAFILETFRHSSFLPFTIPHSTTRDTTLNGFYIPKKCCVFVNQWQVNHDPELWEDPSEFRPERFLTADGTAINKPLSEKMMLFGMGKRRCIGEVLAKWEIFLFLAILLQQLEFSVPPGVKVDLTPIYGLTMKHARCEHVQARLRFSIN
Briefly: Cytochrome P450 inhibition, pooled human hepatic microsome, CYP1A2. Type of experiment: in vitro ADME.

The target in experiment [3] is T3, CYP2D6 (Homo sapiens, UniProt P10635).
T3 construct: using commercially available pooled human hepatic microsome; from tissue; host or cells: pooled human hepatic microsomes
Briefly: Cytochrome P450 inhibition, pooled human hepatic microsome, CYP2D6 (dextromethorphan O-demethylation). The settings on record: 5 μmol/L dextromethorphan, 15 min, 37° C. Type of experiment: in vitro ADME.

Experiment [4] concerns the target Nociceptin receptor (Homo sapiens, UniProt P41146). Briefly: biochemical.
For experiment [5], the target named is T4, CYP3A4 (Homo sapiens, UniProt P08684).
T4 construct: using commercially available pooled human hepatic microsome; from tissue; host or cells: pooled human hepatic microsomes
The experiment in a line: Cytochrome P450 inhibition, pooled human hepatic microsome, CYP3A4. It is filed as in vitro ADME.

Experiment [6] concerns the target human opioid receptor-like (ORL-1) (Homo sapiens, UniProt P41146). Briefly: In vitro ORL-1 receptor [35S]GTPγS functional assay. Type of experiment: biochemical. The settings on record: for Emax: read-out: ORL-1 GTPγS Emax. Background: GTPγS resists hydrolysis and so accumulates on activated G proteins.

T4 sequence (P08684 whole entry): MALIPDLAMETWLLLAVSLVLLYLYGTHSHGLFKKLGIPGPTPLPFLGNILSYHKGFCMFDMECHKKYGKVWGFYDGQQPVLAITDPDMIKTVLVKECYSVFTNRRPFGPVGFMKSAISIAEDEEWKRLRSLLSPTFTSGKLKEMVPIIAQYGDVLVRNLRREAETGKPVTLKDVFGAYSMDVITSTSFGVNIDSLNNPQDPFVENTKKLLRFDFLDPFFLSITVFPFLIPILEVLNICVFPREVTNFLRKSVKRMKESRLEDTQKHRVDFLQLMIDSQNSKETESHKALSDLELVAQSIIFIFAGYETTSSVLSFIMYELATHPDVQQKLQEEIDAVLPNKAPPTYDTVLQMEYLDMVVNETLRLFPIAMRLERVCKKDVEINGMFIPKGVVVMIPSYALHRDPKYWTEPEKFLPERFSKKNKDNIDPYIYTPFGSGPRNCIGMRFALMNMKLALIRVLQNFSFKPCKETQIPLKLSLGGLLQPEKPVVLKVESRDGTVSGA
Chain of human opioid receptor-like (ORL-1) (P41146 whole entry): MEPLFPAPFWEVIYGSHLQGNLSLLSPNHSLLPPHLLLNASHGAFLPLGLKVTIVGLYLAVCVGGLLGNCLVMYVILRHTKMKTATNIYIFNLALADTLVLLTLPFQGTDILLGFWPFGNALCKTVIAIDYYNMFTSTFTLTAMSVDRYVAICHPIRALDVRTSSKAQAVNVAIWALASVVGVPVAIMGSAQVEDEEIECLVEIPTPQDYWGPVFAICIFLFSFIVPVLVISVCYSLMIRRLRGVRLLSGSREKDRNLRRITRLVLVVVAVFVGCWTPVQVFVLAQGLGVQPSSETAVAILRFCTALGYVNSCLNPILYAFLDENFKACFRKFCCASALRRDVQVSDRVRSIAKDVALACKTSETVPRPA
T1 sequence (P11712 whole entry): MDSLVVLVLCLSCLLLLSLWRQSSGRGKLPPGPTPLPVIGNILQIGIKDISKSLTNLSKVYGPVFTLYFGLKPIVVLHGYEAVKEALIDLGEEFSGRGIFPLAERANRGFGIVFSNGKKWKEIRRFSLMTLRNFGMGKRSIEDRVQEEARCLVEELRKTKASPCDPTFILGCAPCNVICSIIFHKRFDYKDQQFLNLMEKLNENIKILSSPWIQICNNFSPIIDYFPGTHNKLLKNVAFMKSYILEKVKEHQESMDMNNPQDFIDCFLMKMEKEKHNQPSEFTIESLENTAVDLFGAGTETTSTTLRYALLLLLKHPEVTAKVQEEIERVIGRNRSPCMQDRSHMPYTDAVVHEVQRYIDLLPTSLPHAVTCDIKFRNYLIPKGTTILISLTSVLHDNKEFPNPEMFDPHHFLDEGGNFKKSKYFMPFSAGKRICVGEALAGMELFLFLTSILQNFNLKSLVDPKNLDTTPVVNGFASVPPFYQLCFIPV
T3 sequence (P10635 whole entry): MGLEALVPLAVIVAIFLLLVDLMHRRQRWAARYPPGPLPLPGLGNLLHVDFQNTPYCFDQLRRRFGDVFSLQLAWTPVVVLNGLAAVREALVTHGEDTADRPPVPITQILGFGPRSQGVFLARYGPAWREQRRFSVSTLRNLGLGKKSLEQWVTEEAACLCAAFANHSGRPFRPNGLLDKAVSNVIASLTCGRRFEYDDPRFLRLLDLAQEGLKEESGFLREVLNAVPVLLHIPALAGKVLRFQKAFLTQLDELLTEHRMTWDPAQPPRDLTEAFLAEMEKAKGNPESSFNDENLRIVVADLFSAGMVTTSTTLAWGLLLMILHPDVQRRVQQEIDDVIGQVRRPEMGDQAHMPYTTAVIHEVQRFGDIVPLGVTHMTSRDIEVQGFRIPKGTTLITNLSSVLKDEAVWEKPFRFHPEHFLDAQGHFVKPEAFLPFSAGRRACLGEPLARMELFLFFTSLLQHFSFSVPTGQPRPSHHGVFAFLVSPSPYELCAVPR
Chain of Nociceptin receptor (P41146 whole entry, looked up): as the sequence (P41146 whole entry) above

Consider `CCOC(=O)c1nc2ccccc2c(=O)n1C1C[C@H]2CCC[C@@H](C1)N2C1C[C@H]2CCC[C@@H](C1)C2` (stereo partly drawn) [8 (D12b), ethyl 3-((1R,1′R,3R,3′R,5S,5′S)-9′-aza[3,9′-bi(bicyclo[3.3.1]nonan)]-3′-yl)-4-oxo-3,4-dihydroquinazoline-2-carboxylate], for which the IC50 in experiment [1] was more than 20 µM; in experiment [2] it was more than 20 µM; in experiment [3], 9.7 µM; in experiment [5] it was 6.5 µM. The Ki in experiment [4] is 0.252 µM.

Regarding `O=C(O)c1nc2ccccc2c(=O)n1C1C[C@H]2CCC[C@@H](C1)N2C1C[C@H]2CCC[C@@H](C1)C2` (stereo partly drawn) [9 (D2b), 3-((1R,1′R,3R,3′R,5S,5′S)-[3,9′-bi(9′-azabicyclo[3.3.1]nonan)]-3′-yl)-4-oxo-3,4-dihydroquinazoline-2-carboxylic acid], the IC50 is more than 20 µM in experiment [1], more than 20 µM in experiment [2], 2.6 µM in experiment [3] and more than 20 µM in experiment [5]. For the same compound, the EC50 in experiment [6] was more than 20 µM. The Emax in experiment [6] was found to be 1%.

For `O=c1[nH]c2ccccc2c(=O)n1C1C[C@H]2CCC[C@@H](C1)N2C1C[C@H]2CCC[C@@H](C1)C2` (stereo partly drawn) [12 (D1a)], the IC50 in experiment [1] is more than 20 µM; in experiment [2], more than 20 µM; in experiment [3] it was 8.9 µM; in experiment [5], more than 20 µM. The same compound displayed an EC50 in experiment [6] of more than 20 µM. In experiment [6], the Emax came out at 1.33 ± 0.33%.

For `O=C(O)Cn1c(=O)n(C2C[C@H]3CCC[C@@H](C2)N3C2C[C@H]3CCC[C@@H](C2)C3)c(=O)c2ccccc21` (stereo partly drawn) [15 (D3a), 2-(3-((1R,1′R,3r,3′R,5S,5′S)-[3,9′-bi(9′-azabicyclo[3.3.1]nonan)]-3′-yl)-2,4-dioxo-3,4-dihydroquinazolin-1(2H)-yl)acetic acid], the IC50 in experiment [1], in experiment [2], in experiment [3] and in experiment [5] was more than 20 µM throughout. For the same compound, in experiment [6], the EC50 is more than 20 µM.

For `O=C(O)CNC(=O)Cn1c(=O)n(C2C[C@H]3CCC[C@@H](C2)N3C2C[C@H]3CCC[C@@H](C2)C3)c(=O)c2ccccc21` (stereo partly drawn) [18 (D28a), 2-(2-(3-((1R,1′R,3r,3′R,5S,5′S)-[3,9′-bi(9′-azabicyclo[3.3.1]nonan)]-3′-yl)-2,4-dioxo-3,4-dihydroquinazolin-1(2H)-yl)acetamido)acetic acid], the IC50 in experiment [1] is more than 20 µM; in experiment [2], more than 20 µM; in experiment [3], 1.6 µM; in experiment [5] it was more than 20 µM. The EC50 in experiment [6] was more than 20 µM. The Emax in experiment [6] was determined as 1%.

Consider `O=C(O)Cn1c(=O)n(C2C[C@H]3CCC[C@@H](C2)N3C2C[C@H]3CCCC[C@@H](C2)C3)c(=O)c2ccccc21` (stereo partly drawn) [21 (J3a), 2-(3-((1R,3R,5S)-9-((1R,6S,8r)-bicyclo[4.3.1]decan-8-yl)-9-azabicyclo[3.3.1]nonan-3-yl)-2,4-dioxo-3,4-dihydroquinazolin-1(2H)-yl)acetic acid], for which the IC50 is more than 20 µM in experiment [1], 5.5 µM in experiment [2], more than 20 µM in experiment [3] and 2.3 µM in experiment [5]. Moreover, in experiment [6], the EC50 was more than 20 µM.

With `CCC1C[C@@H]2CC(N3[C@@H]4CCC[C@H]3CC(n3c(=O)c5ccccc5n(CC(=O)O)c3=O)C4)C[C@H](C1)C2` (stereo partly drawn) [24 (D459a), 2-(3-((1R,1′R,3r,3′R,5S,5′S)-7-ethyl-[3,9′-bi(9′-azabicyclo[3.3.1]nonan)]-3′-yl)-2,4-dioxo-3,4-dihydroquinazolin-1(2H)-yl)acetic acid], the IC50 was more than 20 µM in experiment [1], more than 20 µM in experiment [2], 18.7 µM in experiment [3] and 5.8 µM in experiment [5]. This compound came in with an EC50 in experiment [6] of more than 20 µM. In experiment [4], this compound had a Ki of 0.229 µM.

(Values after patent US9951038B2, “Quinazolin-4(3H)-one-type piperidine compounds and uses thereof” (Purdue Pharma L.P., priority 2012, dated 2018).)
